Data as given in patent US11969428B2, “Methods and pharmaceutical compositions for treating lymphoid malignancy” (priority 2011, dated 2024).

Tested on: thymocytes
Assay: Effect on thymi of 6 week old mice treated 7 days
Type: in vivo, mouse
Conditions: 10 mg kg−1 every 8 hours for 7 days
Description: Cell counts were measured on a Hemavet 850FS system (CDC Technologies, Oxford, CT), and standard procedures were followed for staining cells with the following antibody conjugates for flow cytometry (BD Biosciences, San Jose, CA) (Cella et al., 2004): phycoerythrin (PE) anti-CD4 (clone H129.19), fluorescein (FITC), PE, cytochrome c (CyC), or biotin anti-CD8a, FITC CD3c, CyC anti-B220, and Thy 1.2. Biotinylated antibodies were detected with either streptavidin-PE or streptavidin-CyC. Subsets of DN thymocytes were analyzed based on expression of CD25 and CD44 after gating out cells that stained with a cocktail of biotinylated antibodies to CD4, CD8, B220, Mac-1, and Gr-1 followed by streptavidin Cy-Chrome.
To assess the in vivo efficacy of the inhibitor, its effects on thymi of 6 week old mice were determined, specifically for its ability to recapitulate the phenotype observed when both p110γ and p110δ are deficient. Animals received 10 mg kg^−1 of the inhibitor orally, which was sufficient to maintain plasma concentrations of 0.33±0.18 μM at the end of 8 hours (FIG. 16D). […] In particular, there was a 18-fold reduction in total thymocyte number in comparison to controls, which was primarily due to the loss of DP population (FIG. 16H). These observations are consistent with the ability of CAL-130 to preferentially block the function of both PI3Kγ and PI3Kδ.

## Cc1ccccc1-n1c(C(C)Nc2nc(N)nc3nc[nH]c23)nc2cccc(C)c2c1=O (stereo not shown) [CAL-130]
  reduction in total thymocyte number in comparison to controls: 18 fold
